Patent US6133279A, “Therapeutic agents for renal diseases and organ preservatives” (Chugai Seiyaku Kabushiki Kaisha, priority 1996, dated 2000)
Like-named read-outs stand apart in the source and are kept apart here.

Assays:
[1] = test system: porcine kidney-derived LLC-PK1 cells; assay: Protective effect against oxidized LDL-induced injury of porcine kidney-derived LLC-PK1 cells (2); assay type: cell-based; details: Sus scrofa, LLC-PK1, 6 h, mean ± standard deviation, read-out: Cytoprotection rate (%)
Protocol: For the purpose of evaluating in vitro cytoprotective effect of the compounds of the present invention, a cytoprotective study was performed using porcine kidney-derived LLC-PK1 cells (ATCC-CRL-13921) injured by oxidized low-density lipoprotein (oxidized LDL) in the same manner as in Test example 1 with the exception of some points.
Preparation of oxidized LDL and the conditions for cell culture and addition of test compounds were the same as in Test example 1. However, oxidized LDL was not diluted with saline and added to cells in an amount of 25 μl/well to a concentration of 91 μg/ml and the cells were cultured for 6 hours after addition of the oxidized LDL. Then, 150 μl/well of the culture medium were collected and measured for the lactate dehydrogenase (LDH) level (LD-L: SIGMA DIAGNOSTICS) having leaked in the medium.

[2] = test system: murine mesangial derived MES13 cells; assay: Protective effect against oxidized LDL-induced injury of murine mesangial cells (in vitro); assay type: cell-based; details: Mus musculus, MES13, 10 h, mean ± standard deviation, read-out: Cytoprotection rate (%)
Protocol: For the purpose of evaluating in vitro cytoprotective effect of the compounds of the present invention on mesangial cells, a cytoprotective study was performed using murine mesangial derived MES13 cells (ATCC-CRL-1927) injured by oxidized LDL.
Oxidized LDL was prepared in the same manner as in Test example 1. Cell culture was carried out by plating 2.5×10^4 cells/250 μl/well on a 48-well plate using FBS-free medium (mixture of DME medium and F12 medium in a ratio of 3:1). Test compounds were dissolved or suspended in ethanol and added to the wells in an amount of 1.25 μl/well to a concentration of 1 or 10 μM in each well. After 16 hours or immediately after the addition of the compounds, oxidized LDL was added to cells in an amount of 25 μl/well to a concentration of 91 μg/ml and the cells were cultured for 10 hours after addition of the oxidized LDL. Then, 150 μl/well of the culture medium were collected and measured for the lactate dehydrogenase level (LDL: SIGMA DIAGNOSTICS) having leaked in the medium.
The magnitude of cytoprotective effect was expressed as the cytoprotection rate which was determined by calculating the data assuming that the magnitude in wells containing oxidized LDL is 0% and that the magnitude in containing saline is 100%.

[3] = compound added 16 hours before adding oxidized LDL
[4] = compound added immediately before adding oxidized LDL

Compound | inhibition at 0.1 µM [1, 3] [%] | inhibition at 0.1 µM [1, 4] [%] | inhibition at 1 µM [1, 3] [%] | inhibition at 1 µM [1, 4] [%] | inhibition at 10 µM [1, 3] [%] | inhibition at 10 µM [1, 4] [%] | inhibition at 1 µM [2, 3] [%] | inhibition at 1 µM [2, 4] [%] | inhibition at 10 µM [2, 3] [%] | inhibition at 10 µM [2, 4] [%]
CC(C)(C)c1cc2c(c(C(C)(C)C)c1O)CC1(CCCCCCC1)O2 [Example 21, 4,6-Di-t-butyl-5-hydroxy-2,3-dihydrobenzofuran-2-spiro-1'-cyclooctane] | 15.6 ± 3.6 | 2.5 ± 2.5 | 13.7 ± 13.4 | 6.1 | 16 ± 2.6 | 14.4 ± 3.9 | -7.5 ± 4.2 | -1.5 ± 1.2 | -7 ± 3.4 | 11.9 ± 4.8
CC(C)(C)c1cc2c(c(C(C)(C)C)c1O)CC1(CCOCC1)S2 [Example 69, 4,6-Di-t-butyl-5-hydroxy-2,3-dihydrobenzothiophene-2-spiro-4'-tetrahydropyran] | 1 ± 4.7 | 4.5 ± 2.1 | 24.6 ± 12.8 | 42.5 | 100.4 ± 0.5 | 101.6 ± 0.7 | 4.2 ± 6.3 | 15.6 ± 4 | 54.8 ± 9.3 | 89.8 ± 0.8
CC1(C(=O)O)Cc2c(cc(C(C)(C)C)c(O)c2C(C)(C)C)O1 (centres unmarked) [Example 72, 4,6-Di-t-butyl-5-hydroxy-2-methyl-2,3-dihydrobenzofuran-2-carboxylic acid] | 2.3 ± 1.3 | 2.7 ± 4.3 | 14.8 ± 2 | 14 | 95.9 ± 1.3 | 95.2 ± 0.9 |  |  |  | 
COC(=O)C1(C)Cc2c(cc(C(C)(C)C)c(O)c2C(C)(C)C)O1 (centres unmarked) [Example 73, 4,6-Di-t-butyl-5-hydroxy-2-methoxycarbonyl-2-methyl-2,3-dihydrobenzofuran] | 5.7 ± 1.4 | 4.8 ± 2.9 | 78.9 ± 16.9 | 97.8 | 99.7 ± 1.4 | 99.4 ± 0.3 |  |  |  | 
CC1(C(=O)N2CCCC2)Cc2c(cc(C(C)(C)C)c(O)c2C(C)(C)C)O1 (centres unmarked) [Example 74, 1-(4,6-Di-t-butyl-5-hydroxy-2-methyl-2,3-dihydrobenzofuran-2-carbonyl)pyrrolidine] | 25.2 ± 3.3 | 10.1 ± 2.3 | 54.8 ± 3.8 | 72.7 | 103.6 ± 0.5 | 103.5 ± 0.6 | -10.2 ± 1.4 | 18.7 ± 2.8 | 24.5 ± 3.3 | 73 ± 0.3
CCOC(=O)/C=C/C1(C)Cc2c(cc(C(C)(C)C)c(O)c2C(C)(C)C)O1 (centres unmarked) [Example 75, Ethyl 3-(4,6-di-t-butyl-5-hydroxy-2-methyl-2,3-dihydrobenzofuran-2-yl)-2-propenoate] | 4.9 ± 2.7 | -4.9 ± 1.8 | 26.6 ± 7 | 51.8 | 99.8 ± 0.9 | 98.7 ± 0.4 | -8 ± 2 | 32.3 ± 2.4 | 64.5 ± 6.4 | 79 ± 1.8
CCOC(=O)CCC1(C)Cc2c(cc(C(C)(C)C)c(O)c2C(C)(C)C)O1 (centres unmarked) [Example 76, Ethyl 3-(4,6-di-t-butyl-5-hydroxy-2-methyl-2,3-dihydrobenzofuran-2-yl)propanoate] | -10.4 ± 4.2 | -12.8 ± 1.2 | -2.8 ± 3.5 | -7.6 | 13.8 ± 4.2 | 58.8 ± 9.5 | -4.8 ± 4.1 | 5.3 ± 3.9 | -17.2 ± 0.9 | 34.1 ± 2.5
CC1(C=CCCCC(=O)O)Cc2c(cc(C(C)(C)C)c(O)c2C(C)(C)C)O1 (centres unmarked) [Example 77, 6-(4,6-Di-t-butyl-5-hydroxy-2-methyl-2,3-dihydrobenzofuran-2-yl)-5-hexenoicacid] | 12.3 ± 2.7 | 9.1 ± 1.8 | 6.1 ± 1.5 | 10.6 | 35.8 ± 4 | 48.5 ± 2.1 | 8.4 ± 0.4 | 8.7 ± 2.3 | 2.5 ± 2.8 | 24.3 ± 1.7
CC1(CCCCCC(=O)O)Cc2c(cc(C(C)(C)C)c(O)c2C(C)(C)C)O1 (centres unmarked) [Example 78, 6-(4,6-Di-t-butyl-5-hydroxy-2-methyl-2,3-dihydrobenzofuran-2-yl)hexanoic acid] | -2.8 ± 0.9 | -11.6 ± 2.7 | -10.7 ± 8.9 | -6.7 | 67.5 ± 6.1 | 80.9 ± 1.5 | 13.5 ± 5.6 | 13.2 ± 1.4 | 7.6 ± 2.1 | 51.3 ± 2.7
CC1(CNC(N)=S)Cc2c(cc(C(C)(C)C)c(O)c2C(C)(C)C)O1 (centres unmarked) [Example 80, 1-[(4,6-Di-t-butyl-5-hydroxy-2-methyl-2,3-dihydrobenzofuran-2-yl)methyl]thiourea] | 9.2 ± 1.8 | -1.3 ± 1.4 | 23.7 ± 5.8 | 10.7 | 102.4 ± 0.5 | 102.6 ± 1 | -7 ± 0.8 | -1.3 ± 3.4 | 22.1 ± 0.7 | 56.2 ± 2.4
CC1(CNC(=N)NN)Cc2c(cc(C(C)(C)C)c(O)c2C(C)(C)C)O1 (centres unmarked) [Example 81, 1-Amino-3-[(4,6-di-t-butyl-5-hydroxy-2-methyl-2,3-dihydrobenzofuran-2-yl)methyl]guanidine] | 6.9 ± 3.1 | 8.8 ± 1.6 | 4.2 ± 5.1 | 37.8 | 101.1 ± 0.1 | 101.3 ± 0.1 | -3.9 ± 1.5 | 3.9 ± 2.2 | 7.3 ± 7.2 | 73.4 ± 3.3
CC1(COc2ccc(CNNC(=N)N)cc2)Cc2c(cc(C(C)(C)C)c(O)c2C(C)(C)C)O1 (centres unmarked) [Example 86, 1-{4-[(4,6-Di-t-butyl-5-hydroxy-2-methyl-2,3-dihydrobenzofuran-2-yl)methoxy]benzylamino}guanidine] | -0.4 ± 1.9 | -0.7 ± 2.3 | 3.6 ± 5.8 | 0.2 | 40 ± 2.2 | 102.5 ± 0.5 | -1 ± 11.2 | 19.8 ± 7 | -4.3 ± 1.9 | 78.7 ± 0.7
CC1(CNNC(=N)N)Cc2c(cc(C(C)(C)C)c(O)c2C(C)(C)C)O1 (centres unmarked) [Example 87, 1-[(4,6-Di-t-butyl-5-hydroxy-2-methyl-2,3-dihydrobenzofuran-2-yl)methylamino]guanidine] | -7.8 ± 4.4 | -0.3 ± 0.5 | 6.5 ± 5.2 | 28.6 | 103.6 ± 0.5 | 101.8 ± 0.6 | 3.7 ± 3.3 | 30.3 ± 3.8 | 35.5 ± 4.2 | 86.2 ± 0.6
